Earlier results on two molecules are cited in article PMC12658643, “Effects of Ligand N and O Donor Content on the Structure, Aqueous Stability, and SOD Activity of a Series of Mn^2+ Complexes with Pyridine-Containing Tripodal Ligands” (ACS Omega, 2025).

The subject of one data set is superoxide ion. Conditions: reported previously; reference not given; read-out: IC50 (SOD activity); cited from earlier work.
The conditions of data set [1]: given for comparison to the complexes; reference not given; cited from earlier work.

`OC(CCl)CN(Cc1ccccn1)Cc1ccccn1.[Cl][Mn][Cl]` (centres unmarked) [Mn(HPClNOL)Cl2]: in the data set with superoxide ion, the IC50 (commonly the concentration at which inhibition is half-maximal) was 350 nM.

B1: Escherichia coli MnSOD: manganese superoxide dismutase enzyme of Escherichia coli (protein, UniProt P00448 2-206, looked up)
Superoxide dismutase [Mn]: SYTLPSLPYAYDALEPHFDKQTMEIHHTKHHQTYVNNANAALESLPEFANLPVEELITKLDQLPADKKTVLRNNAGGHANHSLFWKGLKKGTTLQGDLKAAIERDFGSVDNFKAEFEKAAASRFGSGWAWLVLKGDKLAVVSTANQDSPLMGEAISGASGFPIMGLDVWEHAYYLKFQNRRPDYIKEFWNVVNWDEAAARFAAKK
Consider B1, for which, in data set [1], the “E 1/2 vs SHE of MnSOD enzymes” value was 0.40 V.
